Measured values published in paper PMC4057637, “Efficacy of novel antibacterial compounds targeting histidine kinase YycG protein” (Applied Microbiology and Biotechnology, 2014).

Assays:
[1] = system: S. epidermidis ATCC 35984; experiment: Derivatives combined with vancomycin or cefazolin (FIC index); type: cell-based; settings: S. epidermidis ATCC 35984
Excerpt: Combination antimicrobial therapy is widely used to take advantage of different mechanisms of action. It may potentiate the effect of individual antimicrobial agents by synergic action (Bijnsdorp et al. [2011]; Cokol et al. [2011]). The glycopeptide antibiotics, such as vancomycin, can bind the peptidoglycan side chains in the cell wall and prevent cross-linking during cell wall synthesis. Vancomycin has been considered to be one of the most reliable therapeutic agents against staphylococcal infections, but it is unable to clear biofilms even at high concentration (128 mg/l) (Climo et al. [1999]; Darouiche et al. [1994]; Tenover et al. [2001]). […] YycGF also plays an important role in the synthesis of peptidoglycan in B. subtilis and S. aureus (Bisicchia et al. [2007]; Dubrac and Msadek [2004]). In a preliminary study, we assessed the effects of the combined application of the derivatives with vancomycin and cefazolin against S. epidermidis ATCC 35984 according to the method of Odds ([2003]) (Cottagnoud et al. [2003]). […] No antagonism was observed between the derivatives and vancomycin or cefazolin (Table S1).
17 Table S1. The derivatives combined with vancomycin or cefazolin against S. epidermidis
Derivatives Antibiotics MIC (mg/L) FICIa Synergyb
Derivative Antibiotic In combination
alone alone (Derivative/Antibiotic)
19 a The FICI was calculated as FIC indexes= (MICderivative A in combination/MICderivative A
20 alone)+(MICantibiotic B in combination/MIC antibiotic B alone).
21 b The interaction between the two antibacterials is noted as follows: FIC index≤0.5,
22 Synergy (+); 0.5<FIC index≤4 (-), No interaction; FIC≥4.0, Antagonism.

[2] = system: mature (24-h-old) biofilms of S. epidermidis ATCC 35984; experiment: Bacterial viability in mature biofilms by CLSM with Live/Dead staining; type: cell-based; settings: Staphylococcus epidermidis, ATCC35984, 16 h, read-out: proportion of viable cells in mature biofilms
Method: A diluted overnight culture of the bacteria was inoculated into cell culture glass bottom dishes (WPI, USA) and incubated at 37 °C for 24 h. […] The biofilms were washed with PBS and stained with SYTO9 and propidium iodide (PI), both of which were used at a concentration of 1 μM. SYTO9-stained live cells and PI-stained cells dead in biofilms were visualized by a Leica TCS SP5 confocal laser scanning microscope with a ×63 1.4-NA oil immersion objective. Three-dimensional biofilm images were created by IMARIS 7.0.0 software (Bitplane).

[3] = system: 24-h biofilms of S. epidermidis ATCC 35984; experiment: Rabbit subcutaneous S. epidermidis biofilm infection model; type: in vivo, New Zealand White rabbits; settings: vancomycin 128 mg/l, local injection at 0, 24, 48 h; 72 h
Method: To test the effectiveness in vivo of H2-74 and H2-81, 24-h biofilms of S. epidermidis grown on polyethylene disks were imbedded subcutaneously into the New Zealand White rabbits and treated with the derivatives for 72 h in a modification of the method used previously (He et al. [2011]). Disks were cut from polyethylene 96-well plates (8 mm diameter, 1 mm thickness), sterilized with 75 % ethanol and placed in a Petri dish (100 mm diameter). An overnight culture of S. epidermidis ATCC 35984 (20 ml) was inoculated into the dish and incubated at 37 °C for 24 h. The disks covered with biofilms were then implanted subcutaneously in female New Zealand White rabbits (2.0–2.5 kg) that had been anesthetized with pentobarbital sodium (5 mg/kg i.v.). Four incisions (10 mm) were made on the back of the rabbit along the spine bilaterally after removal of fur, and the sub cutis was carefully dissected to form a 2-cm × 3-cm cavity. Two biofilm-covered polyethylene disks were implanted into each cavity, and to minimize the effect of between-animal variation, four different treatments were given locally to each rabbit.
Vancomycin (128 mg/l) and 0.1 % DMSO were administered as the controls. Twenty-four hours after the last treatment, the rabbits were euthanized and the implants were taken out with sterile forceps. Biofilms were scraped from the disks, and the viable bacteria were determined by CFU counting, as previously described (He et al. [2011]). All animals were housed and used in compliance with the guidelines of the Institute of Animal Care and Use Committee, and the protocol was approved by the committee.

| Compound | MIC Antibiotic alone [1] | viability at 128 µg/mL [2] | viable bacteria recovered from implanted disks [3] |
| --- | --- | --- | --- |
| Cc1nnc(SCC2=C(C(=O)O)N3C(=O)[C@@H](NC(=O)Cn4cnnn4)[C@H]3SC2)s1 [cefazolin, reference compound] | 8 µg/mL |  |  |
| CN[C@H](CC(C)C)C(=O)N[C@H]1C(=O)N[C@@H](CC(N)=O)C(=O)N[C@H]2C(=O)N[C@H]3C(=O)N[C@H](C(=O)N[C@H](C(=O)O)c4cc(O)cc(O)c4-c4cc3ccc4O)[C@H](O)c3ccc(c(Cl)c3)Oc3cc2cc(c3O[C@@H]2O[C@H](CO)[C@@H](O)[C@H](O)[C@H]2O[C@H]2C[C@](C)(N)[C@H](O)[C@H](C)O2)Oc2ccc(cc2Cl)[C@H]1O [vancomycin, reference compound] | 4 µg/mL | 88.6% | 5.21 ± 0.24 log10 CFU/cm^2 |
